From paper PMC7676653, “Molecular analysis of cyclic α-maltosyl-(1→6)-maltose binding protein in the bacterial metabolic pathway” (PLoS ONE, 2020) come the findings set out here.

This assay has as its target T1, CMMBP (CmmC) (Arthrobacter globiformis, UniProt D2YYD8).
T1 construct: N-terminal 6xHis tag, pET-28b (NdeI/BamHI), E. coli Rosetta2 (DE3); structure domains span residues 31-421; tag cleavage not mentioned
T1 sequence (D2YYD8 26-421): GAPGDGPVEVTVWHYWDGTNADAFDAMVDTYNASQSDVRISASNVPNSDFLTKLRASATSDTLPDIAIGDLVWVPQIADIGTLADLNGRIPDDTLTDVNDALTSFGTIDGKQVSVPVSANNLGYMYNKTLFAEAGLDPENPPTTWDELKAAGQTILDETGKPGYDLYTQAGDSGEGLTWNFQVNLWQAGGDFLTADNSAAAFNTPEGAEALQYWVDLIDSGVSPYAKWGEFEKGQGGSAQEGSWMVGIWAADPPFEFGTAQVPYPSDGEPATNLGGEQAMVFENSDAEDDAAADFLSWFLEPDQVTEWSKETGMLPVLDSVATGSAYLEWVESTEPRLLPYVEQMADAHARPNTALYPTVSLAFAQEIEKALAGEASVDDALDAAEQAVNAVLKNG
Briefly: isothermal titration calorimetry. Format: binding.

By Kd is commonly meant the equilibrium constant for the complex coming apart. A low value points to tighter binding. `OC[C@H]1O[C@@H]2OC[C@H]3O[C@H](O[C@H]4[C@H](O)[C@@H](O)[C@@H](OC[C@H]5O[C@H](O[C@H]1[C@H](O)[C@H]2O)[C@H](O)[C@@H](O)[C@@H]5O)O[C@@H]4CO)[C@H](O)[C@@H](O)[C@@H]3O` [CMM, cyclo-{→6}-α-D-Glcp-(1→4)-α-D-Glcp-(1→6)-α-D-Glcp-(1→4)-α-D-Glcp-(1→)] returned a Kd of 9.6 nM.
Consider `OC[C@H]1O[C@H](O[C@H]2[C@H](O)[C@@H](O)[C@@H](OC[C@H]3O[C@H](O[C@H]4[C@H](O)[C@@H](O)C(O)O[C@@H]4CO)[C@H](O)[C@@H](O)[C@@H]3O)O[C@@H]2CO)[C@H](O)[C@@H](O)[C@@H]1O` (stereo partly drawn) [MM, α-maltosyl-(1→6)-maltose], for which the “Ka (×10^8 M^-1)” value (20 mM Tris-HCl pH 8.0, 25 °C, one-site model, printed in parentheses as not reliable (weak affinity, low c value)) is given as “(0.0022 ± 0.0014) × 10^8”.
